From US10913727B2, “Modulators of the integrated stress pathway” (Calico Life Sciences LLC, priority 2016, dated 2021)

Tested on: HEK293T cells carrying the ATF4 luciferase reporter
Experiment: ATF4-Luc assay, in vitro model of Vanishing Cell White Matter Disease (VWMD)
Format: cell-based
Conditions: Homo sapiens, HEK-293T, 1 μg/mL tunicamycin, 7 hours, One Glo luminescence
Protocol: In order to test exemplary compounds of the invention in a cellular context, a stable VWMD cell line was first constructed. The ATF4 reporter was prepared by fusing the human full-length ATF4 5′-UTR (NCBI Accession No. BC022088.2) in front of the firefly luciferase (FLuc) coding sequence lacking the initiator methionine as described in Sidrauski et al (eLife 2013). The construct was used to produce recombinant retroviruses using standard methods and the resulting viral supernatant was used to transduce HEK293T cells, which were then subsequently selected with puromycin to generate a stable cell line.
HEK293T cells carrying the ATF4 luciferase reporter were plated on polylysine coated 384-well plates (Greiner Bio-one) at 30,000 cells per well. Cells were treated the next day with 1 μg/mL tunicamycin and 200 nM of a compound of Formula (I) for 7 hours. Luminescence was measured using One Glo (Promega) as specified by the manufacturer. Cells were maintained in DMEM with L-glutamine supplemented with 10% heat-inactivated FBS (Gibco) and Antibiotic-Antimycotic solution (Gibco).
Table 2 below summarizes the EC50 data obtained using the ATF4-Luc assay for exemplary compounds of the invention.

O=C(COc1ccc(Cl)c(F)c1)NC12CC(NC(=O)c3ncc(C(F)F)s3)(C1)C2 [Compound 425, N-{3-[2-(4-chloro-3-fluorophenoxy)acetamido]bicyclo[1.1.1]pentan-1-yl}-5-(difluoromethyl)-1,3-thiazole-2-carboxamide]
EC50: 250 to 1000 nM

O=C(COc1ccc(Cl)c(F)c1)NC12CC(NC(=O)c3ccc(-c4ccccc4)cn3)(C1)C2 [Compound 928, N-{3-[2-(4-chloro-3-fluorophenoxy)acetamido]bicyclo[1.1.1]pentan-1-yl}-5-phenylpyridine-2-carboxamide]
EC50: 50 to 250 nM

CCc1ncc(C(=O)NC23CC(NC(=O)COc4ccc(Cl)c(Cl)c4)(C2)C3)o1 [Compound 674, N-{3-[2-(3,4-dichlorophenoxy)acetamido]bicyclo[1.1.1]pentan-1-yl}-2-ethyl-1,3-oxazole-5-carboxamide]
EC50: < 50 nM

CCc1ncc(C(=O)NC23CC(NC(=O)COc4ccc(Cl)c(F)c4)(C2)C3)s1 [Compound 292, N-{3-[2-(4-chloro-3-fluorophenoxy)acetamido]bicyclo[1.1.1]pentan-1-yl}-2-ethyl-1,3-thiazole-5-carboxamide]
EC50: 50 to 250 nM

COC/C=C/c1cnc(C(=O)NC23CC(NC(=O)COc4ccc(Cl)c(F)c4)(C2)C3)cn1 [Compound 171, N-{3-[2-(4-chloro-3-fluorophenoxy)acetamido]bicyclo[1.1.1]pentan-1-yl}-5-[(1E)-3-methoxyprop-1-en-1-yl]pyrazine-2-carboxamide]
EC50: 50 to 250 nM

O=C(COc1ccc(Cl)c(F)c1)NC12CC(NC(=O)c3cnc(C4CC4)o3)(C1)C2 [Compound 583, N-{3-[2-(4-chloro-3-fluorophenoxy)acetamido]bicyclo[1.1.1]pentan-1-yl}-2-cyclopropyl-1,3-oxazole-5-carboxamide]
EC50: 50 to 250 nM

Cc1ncc(C(=O)NC23CC(NC(=O)COc4ccc(Cl)c(F)c4)(C2)C3)nc1C [Compound 196, N-{3-[2-(4-chloro-3-fluorophenoxy)acetamido]bicyclo[1.1.1]pentan-1-yl}-5,6-dimethylpyrazine-2-carboxamide]
EC50: 250 to 1000 nM

O=C(COc1ccc(Cl)c(F)c1)NC12CCC(NC(=O)c3cc(C(F)F)no3)(CC1)C[C@@H]2O [Compound 671, N-{(3S)-4-[2-(4-chloro-3-fluorophenoxy)acetamido]-3-hydroxybicyclo[2.2.2]octan-1-yl}-3-(difluoromethyl)-1,2-oxazole-5-carboxamide]
EC50: < 50 nM

Cc1nn(C)c2sc(C(=O)NC34CC(NC(=O)COc5ccc(Cl)c(F)c5)(C3)C4)cc12 [Compound 878, N-{3-[2-(4-chloro-3-fluorophenoxy)acetamido]bicyclo[1.1.1]pentan-1-yl}-1,3-dimethyl-1H-thieno[2,3-c]pyrazole-5-carboxamide]
EC50: 250 to 1000 nM

Cc1noc(C)c1C(=O)NC12CCC(NC(=O)COc3ccc(Cl)c(F)c3)(CC1)CC2O (stereo not drawn) [Compound 216, N-{4-[2-(4-chloro-3-fluorophenoxy)acetamido]-2-hydroxybicyclo[2.2.2]octan-1-yl}-3,5-dimethyl-1,2-oxazole-4-carboxamide]
EC50: > 2000 nM

O=C(COc1ccc(Cl)c(F)c1)NC12CC(NC(=O)c3cnc4sccc4c3)(C1)C2 [Compound 723, N-{3-[2-(4-chloro-3-fluorophenoxy)acetamido]bicyclo[1.1.1]pentan-1-yl}thieno[2,3-b]pyridine-5-carboxamide]
EC50: 250 to 1000 nM

O=C(COc1ccc(Cl)c(F)c1)NC12CC(NC(=O)c3cc(C4CC4)no3)(C1)C2 [Compound 244, N-{3-[2-(4-chloro-3-fluorophenoxy)acetamido]bicyclo[1.1.1]pentan-1-yl}-3-cyclopropyl-1,2-oxazole-5-carboxamide]
EC50: 50 to 250 nM

O=C(COc1ccc(Cl)c(F)c1)NC12CC(NC(=O)c3cnc(C(F)(F)F)s3)(C1)C2 [Compound 563, N-{3-[2-(4-chloro-3-fluorophenoxy)acetamido]bicyclo[1.1.1]pentan-1-yl}-2-(trifluoromethyl)-1,3-thiazole-5-carboxamide]
EC50: < 50 nM

Cc1nc(C(=O)NC23CCC(NC(=O)COc4ccc(Cl)c(F)c4)(CC2)C(O)C3)nn1C (stereo not drawn) [Compound 657, N-{4-[2-(4-chloro-3-fluorophenoxy)acetamido]-3-hydroxybicyclo[2.2.2]octan-1-yl}-1,5-dimethyl-1H-1,2,4-triazole-3-carboxamide]
EC50: > 2000 nM

Cc1cccc(C(=O)NC23CCC(NC(=O)COc4ccc(Cl)c(F)c4)(CC2)C(O)C3)n1 (stereo not drawn) [Compound 914, N-{4-[2-(4-chloro-3-fluorophenoxy)acetamido]-3-hydroxybicyclo[2.2.2]octan-1-yl}-6-methylpyridine-2-carboxamide]
EC50: 50 to 250 nM

O=C(COc1ccc(Cl)c(F)c1)NC12CCC(NC(=O)c3cc4ccccn4n3)(CC1)CC2O (stereo not drawn) [Compound 594, N-{4-[2-(4-chloro-3-fluorophenoxy)acetamido]-3-hydroxybicyclo[2.2.2]octan-1-yl}pyrazolo[1,5-a]pyridine-2-carboxamide]
EC50: 50 to 250 nM

O=C(COc1ccc(Cl)c(F)c1)NC12CC(NC(=O)c3ccc(-n4cncn4)cc3)(C1)C2 [Compound 783, N-{3-[2-(4-chloro-3-fluorophenoxy)acetamido]bicyclo[1.1.1]pentan-1-yl}-4-(1H-1,2,4-triazol-1-yl)benzamide]
EC50: > 2000 nM

CC(=O)Nc1ccc(C(=O)NC23CC(NC(=O)COc4ccc(Cl)c(F)c4)(C2)C3)cc1 [Compound 816, 4-acetamido-N-{3-[2-(4-chloro-3-fluorophenoxy)acetamido]bicyclo[1.1.1]pentan-1-yl}benzamide]
EC50: > 2000 nM

Cc1nn(C)cc1-c1ccnc(NC23CC(NC(=O)COc4ccc(Cl)c(F)c4)(C2)C3)n1 [Compound 429, 2-(4-chloro-3-fluorophenoxy)-N-(3-{[4-(1,3-dimethyl-1H-pyrazol-4-yl)pyrimidin-2-yl]amino}bicyclo[1.1.1]pentan-1-yl)acetamide]
EC50: > 2000 nM

O=C(COc1ccc(Cl)c(F)c1)NC12CCC(NC(=O)c3cc(C(F)(F)F)no3)(CC1)C[C@@H]2O [Compound 704, N-{(3S)-4-[2-(4-chloro-3-fluorophenoxy)acetamido]-3-hydroxybicyclo[2.2.2]octan-1-yl}-3-(trifluoromethyl)-1,2-oxazole-5-carboxamide]
EC50: < 50 nM

Cc1cc(C(=O)NC23CCC(NC(=O)COc4ccc(Cl)c(F)c4)(CC2)C(O)C3)nn1C (stereo not drawn) [Compound 468, N-{4-[2-(4-chloro-3-fluorophenoxy)acetamido]-3-hydroxybicyclo[2.2.2]octan-1-yl}-1,5-dimethyl-1H-pyrazole-3-carboxamide]
EC50: 250 to 1000 nM

Cc1cc(C(=O)NC23CCC(NC(=O)COc4ccc(Cl)c(F)c4)(CC2)C[C@@H]3O)n(C)n1 [Compound 506, N-{(2S)-4-[2-(4-chloro-3-fluorophenoxy)acetamido]-2-hydroxybicyclo[2.2.2]octan-1-yl}-1,3-dimethyl-1H-pyrazole-5-carboxamide]
EC50: 50 to 250 nM

O=C(COc1ccc(Cl)c(Cl)c1)NC12CC(NC(=O)c3ccc(OC(F)(F)F)cn3)(C1)C2 [Compound 144, N-{3-[2-(3,4-dichlorophenoxy)acetamido]bicyclo[1.1.1]pentan-1-yl}-5-(trifluoromethoxy)pyridine-2-carboxamide]
EC50: < 50 nM

Cc1ccc(C(=O)NC23CCC(NC(=O)COc4ccc(Cl)c(F)c4)(CC2)C(O)C3)o1 (stereo not drawn) [Compound 624, N-{4-[2-(4-chloro-3-fluorophenoxy)acetamido]-3-hydroxybicyclo[2.2.2]octan-1-yl}-5-methylfuran-2-carboxamide]
EC50: 50 to 250 nM

Cc1nccn1-c1ccccc1C(=O)NC12CC(NC(=O)COc3ccc(Cl)c(F)c3)(C1)C2 [Compound 883, N-{3-[2-(4-chloro-3-fluorophenoxy)acetamido]bicyclo[1.1.1]pentan-1-yl}-2-(2-methyl-1H-imidazol-1-yl)benzamide]
EC50: > 2000 nM

CCc1cnc(C(=O)NC23CC(NC(=O)COc4ccc(Cl)c(F)c4)(C2)C3)cn1 [Compound 708, N-{3-[2-(4-chloro-3-fluorophenoxy)acetamido]bicyclo[1.1.1]pentan-1-yl}-5-ethylpyrazine-2-carboxamide]
EC50: 50 to 250 nM

O=C(COc1ccc(Cl)c(F)c1)NC12CCC(NC(=O)c3ccc(OC(F)(F)F)cn3)(CC1)C[C@@H]2O [Compound 682, N-{(3S)-4-[2-(4-chloro-3-fluorophenoxy)acetamido]-3-hydroxybicyclo[2.2.2]octan-1-yl}-5-(trifluoromethoxy)pyridine-2-carboxamide]
EC50: < 50 nM

O=C(COc1ccc(Cl)c(F)c1)NC12CC(Nc3cccc(-c4ccc(Cl)cc4)n3)(C1)C2 [Compound 398, 2-(4-chloro-3-fluorophenoxy)-N-(3-{[6-(4-chlorophenyl)pyridin-2-yl]amino}bicyclo[1.1.1]pentan-1-yl)acetamide]
EC50: > 2000 nM

O=C(COc1ccc(Cl)c(F)c1)NC12CC(Nc3ccnc(-c4ccc(Cl)cc4)n3)(C1)C2 [Compound 427, 2-(4-chloro-3-fluorophenoxy)-N-(3-{[2-(4-chlorophenyl)pyrimidin-4-yl]amino}bicyclo[1.1.1]pentan-1-yl)acetamide]
EC50: 250 to 1000 nM

Cc1cc(C(=O)NC23CC(NC(=O)COc4ccc(Cl)c(F)c4)(C2)C3)no1 [Compound 273, N-{3-[2-(4-chloro-3-fluorophenoxy)acetamido]bicyclo[1.1.1]pentan-1-yl}-5-methyl-1,2-oxazole-3-carboxamide]
EC50: 250 to 1000 nM
